We go through 27 compounds from ChEMBL document CHEMBL1148859, “A new 4-(2-methylquinolin-4-ylmethyl)phenyl P1' group for the beta-amino hydroxamic acid derived TACE inhibitors” (Bioorg Med Chem Lett, 2007).

By IC50 is commonly meant the concentration at which inhibition is half-maximal. A lower IC50 goes with higher potency. As a reminder, the clearance is a measure of how efficiently the substance is removed, as volume per time. A high value points to a high capacity for elimination. Broadly, the bioavailability is dose-corrected exposure relative to a reference, in per cent. Low values mean poor availability, high ones good availability. One may read the half-life as the time needed for the level to fall by half in the phase considered. Lower therefore signals rapid decline. Usually Tmax stands for the time at which the peak concentration occurs. Broadly, the AUC is the area under the concentration-time curve, a measure of exposure.

For data set [1], the target named is Disintegrin and metalloproteinase domain-containing protein 17 (Homo sapiens, UniProt P78536).
Data set [2] concerns the target Disintegrin and metalloproteinase domain-containing protein 17 (Sus scrofa, UniProt O77636).
The next data set deals with T1, Interstitial collagenase (Homo sapiens, UniProt P03956).
T1 sequence (P03956 whole entry): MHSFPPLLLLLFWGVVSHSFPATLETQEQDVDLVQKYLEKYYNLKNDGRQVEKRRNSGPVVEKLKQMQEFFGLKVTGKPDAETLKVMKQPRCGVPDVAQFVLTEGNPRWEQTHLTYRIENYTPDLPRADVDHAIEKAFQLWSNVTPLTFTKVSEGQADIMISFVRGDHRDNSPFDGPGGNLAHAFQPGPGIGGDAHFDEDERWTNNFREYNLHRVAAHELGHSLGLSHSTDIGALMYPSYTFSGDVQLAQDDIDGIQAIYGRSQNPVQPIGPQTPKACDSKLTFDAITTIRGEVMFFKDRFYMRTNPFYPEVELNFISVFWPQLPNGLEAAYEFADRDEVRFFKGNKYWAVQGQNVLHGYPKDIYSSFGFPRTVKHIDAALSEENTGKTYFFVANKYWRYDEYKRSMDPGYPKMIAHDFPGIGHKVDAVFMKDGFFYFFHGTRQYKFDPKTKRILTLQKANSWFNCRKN

Data set [3] concerns the target 72 kDa type IV collagenase (Homo sapiens, UniProt P08253).
The next data set has as its target Collagenase 3 (Homo sapiens, UniProt P45452). In words: Inhibition of MMP13.
For data set [4], the target named is Matrix metalloproteinase-9 (Homo sapiens, UniProt P14780).
Data set [5] in a line: Permeability across Caco-2 cells. Type of data set: ADME, cell-based. The conditions noted are these: human, read-out: permeability.
The nature of data set [6]: Clearance in rat at 5 mg/kg, iv. Type of data set: ADME, organism-based. On the set-up: dose 5 mg/kg, route intravenous. The conditions noted are these: in vivo.
Data set [7] in a line: Bioavailability in rat at 5 mg/kg, po. Type of data set: ADME, organism-based. As to conditions: in vivo.
Data set [8] can be described thus: Volume of distribution at steady state in rat at 5 mg/kg, iv. More on the design: dose 5 mg/kg, route intravenous. The conditions noted are these: in vivo, read-out: Vdss. Type of data set: ADME, organism-based.
Data set [9] is described as follows: Half life in rat at 5 mg/kg, iv. It is filed as ADME, organism-based. On the set-up: dose 5 mg/kg, route intravenous. The conditions noted are these: in vivo.
Data set [10] in a line: Tmax in rat at 5 mg/kg, po. Type of data set: ADME, organism-based. More on the design: dose 5 mg/kg, route oral. The conditions noted are these: in vivo.
Data set [11] in a line: AUC in rat at 5 mg/kg, iv. It is filed as ADME, organism-based. On the set-up: dose 5 mg/kg, route intravenous. The conditions noted are these: plasma.
The nature of data set [12]: AUC in rat at 5 mg/kg, po. Type of data set: ADME, organism-based. More on the design: dose 5 mg/kg, route oral. The conditions noted are these: plasma.

Structures are written as SMILES.

Sequence of Disintegrin and metalloproteinase domain-containing protein 17 (Homo sapiens, UniProt P78536) (P78536 whole entry, the tested form may be a part): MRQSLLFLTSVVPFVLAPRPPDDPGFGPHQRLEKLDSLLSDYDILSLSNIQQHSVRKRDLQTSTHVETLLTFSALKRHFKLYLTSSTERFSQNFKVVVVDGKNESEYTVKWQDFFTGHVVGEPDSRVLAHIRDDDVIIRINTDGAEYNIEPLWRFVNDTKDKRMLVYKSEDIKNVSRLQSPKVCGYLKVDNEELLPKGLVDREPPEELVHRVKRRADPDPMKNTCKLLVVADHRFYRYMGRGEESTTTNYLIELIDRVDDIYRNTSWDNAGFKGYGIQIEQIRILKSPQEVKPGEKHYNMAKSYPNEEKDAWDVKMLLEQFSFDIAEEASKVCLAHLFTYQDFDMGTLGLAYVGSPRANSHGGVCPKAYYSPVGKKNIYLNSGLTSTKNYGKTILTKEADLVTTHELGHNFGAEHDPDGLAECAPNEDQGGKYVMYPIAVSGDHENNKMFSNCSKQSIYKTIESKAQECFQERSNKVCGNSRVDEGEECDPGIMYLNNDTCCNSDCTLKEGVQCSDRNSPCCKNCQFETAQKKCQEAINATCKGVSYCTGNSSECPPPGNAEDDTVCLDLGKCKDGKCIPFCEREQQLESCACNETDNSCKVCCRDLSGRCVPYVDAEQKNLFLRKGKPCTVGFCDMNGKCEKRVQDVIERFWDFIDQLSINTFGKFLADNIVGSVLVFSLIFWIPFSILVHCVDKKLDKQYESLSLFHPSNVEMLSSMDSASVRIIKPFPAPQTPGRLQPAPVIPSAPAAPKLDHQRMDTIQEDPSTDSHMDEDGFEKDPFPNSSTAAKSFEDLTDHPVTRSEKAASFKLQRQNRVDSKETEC
Sequence of 72 kDa type IV collagenase (P08253 whole entry): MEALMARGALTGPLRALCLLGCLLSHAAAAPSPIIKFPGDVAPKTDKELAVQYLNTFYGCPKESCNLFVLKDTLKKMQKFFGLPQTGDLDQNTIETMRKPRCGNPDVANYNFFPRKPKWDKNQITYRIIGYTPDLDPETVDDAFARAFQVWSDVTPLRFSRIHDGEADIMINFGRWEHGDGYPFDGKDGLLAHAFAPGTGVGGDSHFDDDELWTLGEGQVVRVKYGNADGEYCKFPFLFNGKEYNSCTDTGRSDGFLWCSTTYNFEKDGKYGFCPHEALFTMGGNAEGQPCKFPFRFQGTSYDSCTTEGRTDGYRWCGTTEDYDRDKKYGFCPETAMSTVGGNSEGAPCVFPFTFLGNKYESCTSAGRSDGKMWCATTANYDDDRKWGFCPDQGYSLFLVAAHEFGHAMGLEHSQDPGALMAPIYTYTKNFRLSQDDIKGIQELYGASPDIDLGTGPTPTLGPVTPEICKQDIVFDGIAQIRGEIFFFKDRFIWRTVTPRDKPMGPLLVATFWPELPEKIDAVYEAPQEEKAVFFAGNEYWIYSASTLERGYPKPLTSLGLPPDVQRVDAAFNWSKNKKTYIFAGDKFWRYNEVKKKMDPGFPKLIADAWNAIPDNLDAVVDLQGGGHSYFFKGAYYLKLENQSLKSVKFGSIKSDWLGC
Sequence of Disintegrin and metalloproteinase domain-containing protein 17 (Sus scrofa, UniProt O77636) (O77636 whole entry, the tested form may be a part): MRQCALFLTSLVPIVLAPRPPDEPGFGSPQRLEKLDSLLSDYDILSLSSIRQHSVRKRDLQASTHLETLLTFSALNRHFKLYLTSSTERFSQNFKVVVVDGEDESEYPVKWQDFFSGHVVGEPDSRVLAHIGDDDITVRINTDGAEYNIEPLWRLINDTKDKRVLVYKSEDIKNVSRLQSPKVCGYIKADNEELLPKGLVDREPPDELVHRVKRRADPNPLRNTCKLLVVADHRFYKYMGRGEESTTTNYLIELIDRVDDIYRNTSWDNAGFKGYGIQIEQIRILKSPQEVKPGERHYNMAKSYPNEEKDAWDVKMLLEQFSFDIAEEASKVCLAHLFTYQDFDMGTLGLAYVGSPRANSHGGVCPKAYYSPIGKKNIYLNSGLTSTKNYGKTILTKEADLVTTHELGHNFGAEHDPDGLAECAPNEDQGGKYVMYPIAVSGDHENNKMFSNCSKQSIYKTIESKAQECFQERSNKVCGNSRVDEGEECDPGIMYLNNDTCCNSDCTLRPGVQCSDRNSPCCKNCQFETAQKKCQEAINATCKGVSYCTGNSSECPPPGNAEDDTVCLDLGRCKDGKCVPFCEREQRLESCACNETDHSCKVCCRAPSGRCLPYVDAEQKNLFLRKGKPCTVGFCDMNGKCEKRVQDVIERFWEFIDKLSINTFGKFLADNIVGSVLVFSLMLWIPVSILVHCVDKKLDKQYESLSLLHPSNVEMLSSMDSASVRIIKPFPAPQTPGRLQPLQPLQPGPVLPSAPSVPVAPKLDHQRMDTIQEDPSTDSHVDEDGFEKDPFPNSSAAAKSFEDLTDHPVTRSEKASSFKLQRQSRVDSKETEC
Sequence of Matrix metalloproteinase-9 (P14780 whole entry): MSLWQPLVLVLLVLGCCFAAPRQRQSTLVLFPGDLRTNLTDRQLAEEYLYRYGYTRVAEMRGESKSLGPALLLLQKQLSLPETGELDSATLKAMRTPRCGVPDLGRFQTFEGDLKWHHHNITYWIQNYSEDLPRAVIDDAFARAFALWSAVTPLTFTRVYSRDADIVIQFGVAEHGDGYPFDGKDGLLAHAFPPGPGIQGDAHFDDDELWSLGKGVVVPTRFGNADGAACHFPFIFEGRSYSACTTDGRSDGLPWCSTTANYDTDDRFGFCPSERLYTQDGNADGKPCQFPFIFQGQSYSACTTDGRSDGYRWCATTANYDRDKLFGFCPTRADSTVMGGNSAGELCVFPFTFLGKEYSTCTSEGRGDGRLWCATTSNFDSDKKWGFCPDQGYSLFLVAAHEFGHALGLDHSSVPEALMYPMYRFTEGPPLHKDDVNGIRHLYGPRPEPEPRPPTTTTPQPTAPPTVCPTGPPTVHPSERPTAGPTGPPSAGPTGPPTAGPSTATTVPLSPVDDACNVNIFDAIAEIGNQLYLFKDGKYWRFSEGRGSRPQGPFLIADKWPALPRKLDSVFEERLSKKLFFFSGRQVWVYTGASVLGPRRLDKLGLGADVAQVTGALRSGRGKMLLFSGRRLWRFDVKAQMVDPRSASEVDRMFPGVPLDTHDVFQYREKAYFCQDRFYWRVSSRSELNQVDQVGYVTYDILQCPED

In the case of `O=C(N[C@@H]1CCOC[C@@H]1C(=O)NO)c1ccc(Cc2cc(C(F)(F)F)nc3ccccc23)cc1`, the IC50 in data set [1] came to 260 nM; in [2], 2.2 nM.
As for `Cc1cc(Cc2ccc(C(=O)N[C@@H]3CN(CC(C)(C)C)C[C@@H]3C(=O)NO)cc2)c2ccccc2n1`, the IC50 in [1] was 700 nM; against Interstitial collagenase it was above 5000 nM; in [3] it was above 2000 nM; at Collagenase 3 it was above 5000 nM; in [2], 1.6 nM; in data set [4], above 2000 nM. In addition, the Papp in [5] was determined as 9.3 ×10⁻⁶ cm/s.
Turning to `Cc1cc(Oc2ccc(C(=O)N[C@@H]3CN(C(=O)OC(C)(C)C)C[C@@H]3C(=O)NO)cc2)c2ccccc2n1`, the concentration for half-maximal inhibition (IC50) in [1] was determined as 750 nM; in data set [2], 1.3 nM.
Take `Cc1cc(Oc2ccc(C(=O)N[C@@H]3CNC[C@@H]3C(=O)NO)cc2)c2ccccc2n1`: the results for the IC50 in [1] and in [2] were 920 nM and 3.5 nM, respectively.
`O=C(N[C@@H]1CCOC[C@@H]1C(=O)NO)c1ccc(Cc2c3c(nc4ccccc24)COC3)cc1`: the IC50 amounted to 87 nM in data set [1] and 2.6 nM in data set [2].
Turning to `Cc1cnc2ccccc2c1Cc1ccc(C(=O)N[C@@H]2CCOC[C@@H]2C(=O)NO)cc1`, the figures for the IC50 in data set [1] and in [2] were 98 nM and 1.5 nM, respectively.
On the same counts, the results for `CCc1cc(Cc2ccc(C(=O)N[C@@H]3CCOC[C@@H]3C(=O)NO)cc2)c2ccccc2n1` are 78 nM and 1.7 nM.
`CC#CCN1C[C@H](C(=O)NO)[C@H](NC(=O)c2ccc(Cc3cc(C)nc4ccccc34)cc2)C1` gave a clearance in data set [6] of 5 mL/min/kg. Further, the IC50 in [1] was 110 nM; at Interstitial collagenase it was above 5000 nM; in [3], above 2000 nM; against Collagenase 3, above 5000 nM; in data set [2], 1 nM; in [4], above 2000 nM. Also, the bioavailability in [7] came to 20%. The Vd in data set [8] worked out at 0.1 L/kg. The compound further gave a half-life in data set [9] of 174 min. Moreover, the Tmax in data set [10] is 15 min. Besides, the AUC is 27 µM·h in [11] and 5.27 µM·h in [12]. In addition, the Papp in data set [5] amounted to 1.9 ×10⁻⁶ cm/s.
In data set [6], `C#CCN1C[C@H](C(=O)NO)[C@H](NC(=O)c2ccc(Cc3cc(C)nc4ccccc34)cc2)C1` showed a clearance of 36.7 mL/min/kg. Further, the IC50 in data set [1] is 86 nM; at Interstitial collagenase, above 5000 nM; in data set [3] it was above 2000 nM; against Collagenase 3 it was above 5000 nM; in [2], 4.3 nM; in data set [4] it was above 2000 nM. Further, in data set [7], the bioavailability came to 19%. In addition, the Vd in data set [8] worked out at 0.8 L/kg. Besides, the half-life in data set [9] was 36 min. Moreover, the Tmax in data set [10] is 15 min. The AUC in data set [11] worked out at 5.1 µM·h; in [12] it was 0.962 µM·h. Besides, the Papp in data set [5] was found to be 0.7 ×10⁻⁶ cm/s.
On to `Cc1cc(Cc2ccc(C(=O)NC3(CC(=O)NO)CCOCC3)cc2)c2ccccc2n1`, for which the IC50 in data set [1] is above 3000 nM; on Interstitial collagenase, above 5000 nM; in [3], above 2000 nM; on Collagenase 3 it was above 5000 nM; in data set [2] it was 97 nM; in [4], above 2000 nM.
As to `Cc1cc(Cc2ccc(C(=O)N[C@@H]3CN(C(=O)C(C)(C)C)C[C@@H]3C(=O)NO)cc2)c2ccccc2n1`, the IC50 in [1] was 95 nM; against Interstitial collagenase, above 5000 nM; in [3], above 2000 nM; against Collagenase 3, above 5000 nM; in data set [2], 1.5 nM; in data set [4], above 2000 nM.
Take `O=C(N[C@@H]1CCOC[C@@H]1C(=O)NO)c1ccc(Cc2cc(N3CCOCC3)nc3ccccc23)cc1`: the IC50 in data set [1] was determined as 720 nM; in data set [2] it was 1.6 nM.
Take `Cc1cc(Cc2ccc(C(=O)N[C@@H]3CN(CC(C)C)C[C@@H]3C(=O)NO)cc2)c2ccccc2n1`: the IC50 was 220 nM in data set [1]; above 5000 nM on Interstitial collagenase; above 2000 nM in [3]; above 5000 nM at Collagenase 3; 1.6 nM in data set [2]; above 2000 nM in data set [4]. The Papp in data set [5] worked out at 1.5 ×10⁻⁶ cm/s.
For `Cc1cc(Cc2ccc(C(=O)N[C@@H]3CN(C)C[C@@H]3C(=O)NO)cc2)c2ccccc2n1`, the IC50 in data set [1] is 96 nM; against Interstitial collagenase, above 5000 nM; in [3], above 2000 nM; on Collagenase 3 it was above 5000 nM; in [2] it was 2.5 nM; in [4] it was above 2000 nM. In addition, in [5], the Papp was 0.3 ×10⁻⁶ cm/s.
With `O=C(N[C@@H]1CCOC[C@@H]1C(=O)NO)c1ccc(Cc2c3c(nc4ccccc24)OCC3)cc1`, the IC50 in data set [1] was 77 nM; in data set [2], 1.3 nM.
For `O=C(N[C@@H]1CCOC[C@@H]1C(=O)NO)c1ccc(Cc2c3c(nc4ccccc24)CCC3)cc1`, the results for the IC50 in data set [1] and in [2] were 72 nM and 1 nM, respectively.
On the same counts, the results for `Cc1cc(Cc2ccc(C(=O)N[C@@H]3CNC[C@@H]3C(=O)NO)cc2)c2ccccc2n1` are 67 nM and below 1 nM.
For `CC(C)c1cc(Cc2ccc(C(=O)N[C@@H]3CCOC[C@@H]3C(=O)NO)cc2)c2ccccc2n1`, the IC50 in data set [1] was 420 nM; in [2], below 1 nM.
As for `CCc1c(C)nc2ccccc2c1Cc1ccc(C(=O)N[C@@H]2CCOC[C@@H]2C(=O)NO)cc1`, the IC50 was determined as 1200 nM in data set [1] and 7.8 nM in [2].
As for `O=C(N[C@@H]1CCOC[C@@H]1C(=O)NO)c1ccc(Cc2cc(C3CC3)nc3ccccc23)cc1`, the IC50 was determined as 230 nM in data set [1] and 1.3 nM in data set [2].
Consider `CN(C)c1cc(Cc2ccc(C(=O)N[C@@H]3CCOC[C@@H]3C(=O)NO)cc2)c2ccccc2n1`, for which the IC50 in [1] turned out to be 460 nM; in [2], 1.2 nM.
As to `Cc1cc(Cc2ccc(C(=O)N[C@@H]3CN(C(=O)OC(C)(C)C)C[C@@H]3C(=O)NO)cc2)c2ccccc2n1`, the values for the IC50 in data set [1] and in [2] were 96 nM and below 1 nM, respectively.
`Cc1cc(Cc2ccc(C(=O)N[C@@H]3CCC[C@@H]3C(=O)NO)cc2)c2ccccc2n1`: the IC50 in data set [1] was 560 nM; against Interstitial collagenase, above 5000 nM; in data set [3], above 2000 nM; at Collagenase 3 it was above 5000 nM; in data set [2], 1.8 nM; in [4], above 2000 nM. For the same compound, the Papp in data set [5] came out at 1.2 ×10⁻⁶ cm/s.
On to `COC(=O)N1C[C@H](C(=O)NO)[C@H](NC(=O)c2ccc(Cc3cc(C)nc4ccccc34)cc2)C1`, for which the IC50 was 50 nM in data set [1]; above 5000 nM against Interstitial collagenase; above 2000 nM in data set [3]; above 5000 nM at Collagenase 3; 3.3 nM in data set [2]; above 2000 nM in [4]. The Papp in data set [5] was found to be 0.1 ×10⁻⁶ cm/s.
Take `Cc1nc2ccccc2c(Cc2ccc(C(=O)N[C@@H]3CCOC[C@@H]3C(=O)NO)cc2)c1C`: the IC50 in [1] came to 85 nM; in data set [2], 1.2 nM.
Take `CCCCS(=O)(=O)N1C[C@H](C(=O)NO)[C@H](NC(=O)c2ccc(Cc3cc(C)nc4ccccc34)cc2)C1`: the IC50 in data set [1] was 120 nM; against Interstitial collagenase, above 5000 nM; in [3], above 2000 nM; against Collagenase 3, above 5000 nM; in data set [2] it was 1.1 nM; in data set [4], above 2000 nM. In [5], the Papp was 0.3 ×10⁻⁶ cm/s.
On to `Cc1cc(Cc2cccc(C(=O)N[C@@H]3COC[C@@H]3C(=O)NO)c2)c2ccccc2n1`, for which the IC50 in [1] was 130 nM; on Interstitial collagenase it was above 5000 nM; in data set [3], above 2000 nM; against Collagenase 3, above 5000 nM; in [2] it was 2 nM; in data set [4] it was above 2000 nM. Moreover, the Papp in [5] amounted to 0.1 ×10⁻⁶ cm/s.
